Reference: ChEMBL document CHEMBL1681782, “A novel alkaloid, aristopyridinone A and anti-inflammatory phenanthrenes isolated from Aristolochia manshuriensis” (Bioorg Med Chem Lett, 2011)
Converted amounts (≈) assume the structure as drawn.

Legend:
[1] = tested on: Neutrophil; experiment: Ratio of Genistein IC50 to compound IC50 for inhibition of fMLP/CB-induced superoxide anion generation in human neutrophils; type: functional
[2] = Antiinflammatory activity in human neutrophils assessed as inhibition of fMLP/CB-induced superoxide anion generation after 5 mins; type: functional, cell-based; settings: Neutrophil
[3] = tested on: Neutrophil; experiment: Ratio of Genistein IC50 to compound IC50 for inhibition of fMLP/CB-induced elastase release in human neutrophils; type: functional
[4] = Antiinflammatory activity in human neutrophils assessed as inhibition of fMLP/CB-induced elastase release after 5 mins; type: functional, cell-based; settings: Neutrophil

## O=C1Nc2cc3ccc(O)cc3c3c4c(cc1c23)OCO4
[1]
  Ratio IC50: 4.5
[2]
  IC50: 0.12 mg/L (≈ 0.43 µM)
[3]
  Ratio IC50: 35
[4]
  IC50: 0.2 mg/L (≈ 0.716 µM)

## COC(=O)c1cc2c(c3c1c([N+](=O)[O-])cc1c(OC)cccc13)OCO2
[2]
  IC50: > 10 mg/L
[4]
  IC50: > 10 mg/L

## NC(=O)c1cc2c(c3c1ccc1ccccc13)OCO2 [ARISTOLAMIDE II]
[2]
  IC50: > 10 mg/L
[4]
  IC50: 4.11 mg/L (≈ 15.5 µM)

## COc1cccc2c1ccc1c(C(N)=O)cc3c(c12)OCO3 [ARISTOLAMIDE]
[2]
  IC50: > 10 mg/L
[4]
  IC50: > 10 mg/L

## COC(=O)c1cc2c(c3c1ccc1c(OC)cc(OC)cc13)OCO2 [ARISTOLIC ACID METHYL ESTER]
[2]
  IC50: > 10 mg/L
[4]
  IC50: > 10 mg/L

## O=C(O)c1cc2c(c3c1c([N+](=O)[O-])cc1ccc(O)cc13)OCO2 [ARISTOLOCHIC ACID C]
[2]
  IC50: > 10 mg/L
[4]
  IC50: > 10 mg/L

## COc1cccc2c1cc([N+](=O)[O-])c1c(C(=O)O)cc3c(c12)OCO3 [ARISTOLOCHIC ACID]
[2]
  IC50: > 10 mg/L
[4]
  IC50: > 10 mg/L

## COc1cc(O)cc2c1cc([N+](=O)[O-])c1c(C(=O)O)cc3c(c12)OCO3 [ARISTOLOCHIC D]
[2]
  IC50: 5.78 mg/L (≈ 16.2 µM)
[4]
  IC50: 8.49 mg/L (≈ 23.8 µM)

## O=c1c(-c2ccc(O)cc2)coc2cc(O)cc(O)c12 [GENISTEIN]
[2]
  IC50: 0.54 mg/L (≈ 2 µM)
[4]
  IC50: 6.99 mg/L (≈ 25.9 µM)

## COC(=O)c1cc2c(c3c1ccc1c(OC)cccc13)OCO2 [METHYL ARISTOLATE]
[2]
  IC50: > 10 mg/L
[4]
  IC50: > 10 mg/L
